Here are results for one compound from publication PMC4551797 (PLoS ONE, 2015).

One data set concerns C57BL/6 mice. Briefly: Oral glucose tolerance test with hormone measurement. The class given is in vivo, mouse. The conditions noted are these: 30 mg/kg oral, glucose 3 g/kg. The method, then: For measurement of glucose only, overnight-fasted C57BL/6 mice in a normal light cycle were orally dosed with vehicle or compound, followed by an oral bolus of 3 g/kg glucose at 15 minutes post compound. At 0, 20, 40, 60, and 120 minutes post glucose dose, blood glucose was assessed via glucometers. Resulting raw data was used to generate AUCs. For measurement of hormones and glucose, overnight-fasted C57BL/6 mice acclimated for two weeks to a reverse light cycle were orally dosed with vehicle or compound, followed by an oral bolus of 3 g/kg glucose at 15 minutes post compound. At 0, 2, 5, 10, 20, 40, and 60 minutes post glucose dose, blood glucose was assessed via glucometers, followed immediately by collection of plasma for active GLP-1 (Mesoscale Discovery), insulin (Mesoscale Discovery), and total PYY. Glucose tolerance tests in diet-induced obese (DIO) C57BL/6 mice were performed in overnight-fasted animals dosed either acutely or after 2-week administration with vehicle or compound 18 at 60 mg/kg, followed 30 minutes post compound by an oral bolus of 2 g/kg glucose. At 0, 15, 30, 60, and 120 minutes post glucose dose, blood glucose was assessed via glucometers. Resulting raw data was used to generate AUCs.
To evaluate glucose, insulin, GLP-1, and PYY levels throughout the OGTT, each time-point consisted of a separate group of mice that were used to record glucose by use of a glucometer followed by terminal bleeds for measurement of active GLP-1, total PYY, and insulin. AUCs were then calculated for the entire hour of the OGTT. […] Changes in insulin AUCs were not increased with treatment of either sitagliptin or compound 18, likely due to the lower glucose levels reducing the drive for glucose-stimulated insulin secretion (Fig 5D).
Fig 5 Compound 18 increases GLP-1 and PYY and lowers the glucose and insulin excursions as compared to sitagliptin in an OGTT in C57BL/6 mice. […] Plasma was analyzed for active GLP-1 (A), total PYY (B), and insulin (D), while blood glucose was measured by glucometers (C).

A further data set has as its system DIO C57BL/6 mice. Description: Body weight, food intake and body composition in DIO mice over two weeks. The class given is in vivo, mouse. The conditions noted are these: 60 mg/kg oral once a day. As to the method:
Body composition of mice was determined using Quantitative Nuclear Magnetic Resonance analysis (ECHO MRI, 3–1 Composition Analyzer; Echo Medical Systems, Houston, TX). DIO mice were randomized by body weight and fat mass prior to administration of compounds. Changes in body weight, cumulative food intake, and fat and lean mass were recorded for up to a two week period.
While compound 18 led to significant glucose lowering in an OGTT studies when dosed acutely, it remained unclear if the mechanism of TGR5-stimulated GLP-1 secretion desensitizes over time. […] In order to determine if desensitization occurs, as well as explore the potential for changes in body weight by compound 18, we obtained DIO C57BL/6 mice and randomly assigned them into either an acute or chronic study. For the acute experiment, overnight-fasted DIO mice were dosed with vehicle or 60 mg/kg of compound 18 the next morning, and an OGTT was performed 30 minutes after compound dosing using 2 g/kg glucose. For the chronic study, DIO mice were orally dosed with vehicle or 60 mg/kg compound 18 once a day for two weeks; body weights and food intake were measured during the treatment period. After two weeks, mice were over-night fasted, dosed the following morning, and subjected to an OGTT 30 minutes after compound dosing.
Diet-induced obese (DIO) C57BL/6 mice were either dosed acutely or chronically for two weeks with vehicle (white circles, white bars) or compound 18 at 60 mg/kg (black triangles, black bars). An OGTT on over-night fasted DIO mice was performed after either a single dose (A, acute) or after two weeks of dosing (B, chronic), using 2 g/kg glucose dosed 30 minutes after compound dosing. Changes in body weights (C) and cumulative food intake (D) were recorded for the two week period. n = 8; mean +/- SEM. * P < 0.01.

Data set [1] can be described thus: Plasma compound levels after oral dosing (LC-MS/MS). The following applies: C57BL/6, mouse.
For the next data set, the system named is Tgr5 KO mice. Description: Three-day study on GLP-1, PYY and bile weight in Tgr5 KO mice. The conditions noted are these: 100 mg/kg oral BID 3 days, 30 min after last dose.

The structures appear in SMILES notation.

Description for Tgr5 KO mice: C57BL/6 mice, Tgr5 KO mice, or their wild-type littermate controls were orally dosed with vehicle or compounds twice per day for 3 days, with overnight fasting performed on the evening of day 2. On the morning of day 3, animals were dosed orally with compounds and then euthanized by CO2 asphyxiation at 30 minutes after the fifth dose. Plasma was collected for analysis of GLP-1 (X-36) amide as mentioned above, followed immediately by incision into the abdominal cavity to remove and weigh bile from the gallbladder.

As a reminder, the AUC(0-t) is the area under the concentration-time curve up to a stated or last time point. Lower therefore signals low exposure. Usually Cmax stands for the maximum level reached in the sampled fluid or tissue. As a reminder, the Tmax is the time at which the peak concentration occurs. On to `CC(=O)N1CCC(C(C)N(C(=O)COc2cccc3sc4nc(C)cn4c23)c2ccc(F)cc2)CC1` (centres unmarked) [compound 18], for which, in the data set with C57BL/6 mice (1 hour), the “AUC of active GLP-1 during OGTT” value is “superior AUC for active GLP-1 above both vehicle and sitagliptin”; the “AUC of total PYY during OGTT” value was “higher increase in the AUC of total PYY above both vehicle and sitagliptin”; the “insulin AUC during OGTT” value is given as “not increased”. The “glucose excursion during OGTT” value with C57BL/6 mice (versus sitagliptin 10 mg/kg) was “levels indistinguishable from those of sitagliptin-treated animals”. In the data set on DIO C57BL/6 mice, the food intake entry is “no change in food intake” and the “reduction in body weight gain versus vehicle” value came out at 1.4 g. In addition, the lean mass entry in the data set on DIO C57BL/6 mice (P = 0.995) is “no difference in lean mass”. In addition, the “gain in fat mass” value in the data set with DIO C57BL/6 mice (p = 0.067) was “trend towards reduced gain in fat mass”. In data set [1] (3 mg/kg), the AUC(0-t) came out at 0.049 µM·h and the highest level (Cmax) was 59 nM. In data set [1] (10 mg/kg), this compound yielded an AUC(0-t) of 0.507 µM·h and a Cmax of 348 nM. Moreover, in data set [1] (30 mg/kg), the AUC(0-t) was determined as 1.52 µM·h and the concentration peaked (Cmax) at 2510 nM. Further, in data set [1] (100 mg/kg), the AUC(0-t) came to 14.3 µM·h, the Cmax stood at 14800 nM and the Tmax is 15 min. Also, in the data set with Tgr5 KO mice, the GLP-1 result was “no detectable increase”, the PYY entry is given as “no detectable increase” and the bile weight result is “no detectable increase”.
